# *1 amine or outer side, *2 acyl side, *3 side chain or, on linkers, in order; H or OH if unused. Where a SMILES comes first, the peptide text is derived from it. Side-chain parts run from the residue outwards. [ ]: non-standard residue; d: D form. The star is where a group is joined. Isobutyryl(2-(3-CN-5-F-Ph)) = CC(C)(C(=O)*)c1cc(F)cc(C#N)c1; C20 diacid = O=C(O)CCCCCCCCCCCCCCCCCCC(=O)*; γGlu = O=C(O)[C@H](CCC(=O)[*:2])N[*:1]; X54 = Cc1cn(C(C)(C)C(=O)*)nc1C(F)(F)F; X79 = O=C1CC(C(=O)*)(c2ccccn2)CN1; X5 = O=C(C1(c2ccc(F)cc2F)CCCC1)*; X13 = CC(C)(C(=O)*)c1cccc(F)c1F; X32 = CC(C)(CN[*:1])C(=O)[*:2]; AEEA = NCCOCCOCC(=O)O; Aib = CC(C)(N)C(=O)O; βAla = NCCC(=O)O
# Legend:
# Format in all cases: cell-based
# GLP-1 receptor [1] = target: T1, GLP-1 receptor (Homo sapiens, UniProt P43220); assay: HitHunter cAMP assay, GLP-1 receptor; conditions: for EC50: CHO cells stably expressing human GLP-1 receptor, cAMP accumulation, 30 min, read-out: EC50 GLP-1R; for Emax: CHO cells, cAMP, normalized to maximum signal from GLP-1 (high) and DMSO (low), read-out: Emax GLP-1R
# T1 sequence (P43220 24-463): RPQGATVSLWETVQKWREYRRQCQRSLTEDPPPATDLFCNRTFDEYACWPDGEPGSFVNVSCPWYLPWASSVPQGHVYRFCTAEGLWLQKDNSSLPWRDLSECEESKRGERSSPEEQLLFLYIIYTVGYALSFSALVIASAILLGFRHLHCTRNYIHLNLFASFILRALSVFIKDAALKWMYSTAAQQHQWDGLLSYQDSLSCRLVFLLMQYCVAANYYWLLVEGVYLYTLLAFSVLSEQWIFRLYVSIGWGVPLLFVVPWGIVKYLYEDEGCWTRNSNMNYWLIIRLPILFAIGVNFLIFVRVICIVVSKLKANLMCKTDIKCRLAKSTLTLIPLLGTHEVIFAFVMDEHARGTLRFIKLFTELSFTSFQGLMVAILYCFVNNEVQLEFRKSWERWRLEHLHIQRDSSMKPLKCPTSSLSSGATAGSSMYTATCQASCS
# GIP receptor [2] = target: T2, GIP receptor (Homo sapiens, UniProt P48546); assay: HitHunter cAMP assay, GIP receptor; conditions: for EC50: CHO cells stably expressing GIP receptor, cAMP accumulation, 30 min, read-out: EC50 GIP-1R; for Emax: CHO cells, cAMP, normalized to maximum signal from GIP (high) and DMSO (low), read-out: Emax GIP-1R
# T2 sequence (P48546 22-466): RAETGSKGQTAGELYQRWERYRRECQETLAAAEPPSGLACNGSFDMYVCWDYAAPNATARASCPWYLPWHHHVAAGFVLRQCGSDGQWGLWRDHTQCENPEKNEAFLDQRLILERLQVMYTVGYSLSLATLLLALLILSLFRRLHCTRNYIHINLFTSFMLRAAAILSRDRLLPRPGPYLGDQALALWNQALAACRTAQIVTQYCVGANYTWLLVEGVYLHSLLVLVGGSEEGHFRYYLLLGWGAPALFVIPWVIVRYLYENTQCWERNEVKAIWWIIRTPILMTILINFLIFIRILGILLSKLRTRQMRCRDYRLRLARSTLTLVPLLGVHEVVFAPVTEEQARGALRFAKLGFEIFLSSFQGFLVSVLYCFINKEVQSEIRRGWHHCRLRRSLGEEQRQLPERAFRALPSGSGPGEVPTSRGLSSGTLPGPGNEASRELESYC
# GIP receptor [3] = target: T2, GIP receptor; assay: PathHunter β-arrestin assay, GIP receptor; design: host or cells: PathHunter CHO-K1 GIPR β-Arrestin Cell Line; conditions: β-arrestin-2 recruitment, PathHunter CHO-K1 GIPR β-Arrestin Cell Line, 90 min at 37° C.; normalized to GIP; read-out: GIPR β Arrestin EC50
# GLP-1 receptor [4] = target: T1, GLP-1 receptor; assay: PathHunter β-arrestin assay, GLP-1 receptor; design: host or cells: PathHunter CHO-K1 GLP1R β-Arrestin Cell Line; conditions: β-arrestin-2 recruitment, PathHunter CHO-K1 GLP1R β-Arrestin Cell Line, 90 min at 37° C.; normalized to GLP-1; read-out: GLP-1R β Arrestin EC50
Structure (SMILES),EC50 (GLP-1 receptor [1]),Emax (GLP-1 receptor [1]),EC50 (GIP receptor [2]),Emax (GIP receptor [2]),EC50 (GIP receptor [3]),EC50 (GLP-1 receptor [4])
CC[C@H](C)[C@H](NC(=O)[C@H](CC(C)C)NC(=O)[C@H](Cc1c[nH]c2ccccc12)NC(=O)[C@H](CCC(N)=O)NC(=O)[C@@H](NC(=O)[C@H](Cc1ccccc1)NC(=O)[C@H](C)NC(=O)[C@H](CCCCNC(=O)COCCOCCNC(=O)COCCOCCNC(=O)CC[C@H](NC(=O)CCCCCCCCCCCCCCCCCCC(=O)O)C(=O)O)NC(=O)[C@H](CCC(N)=O)NC(=O)[C@H](C)NC(=O)[C@@H](NC(=O)[C@H](CCCCN)NC(=O)[C@H](CC(=O)O)NC(=O)[C@H](CC(C)C)NC(=O)C(C)(C)NC(=O)[C@@H](NC(=O)[C@H](CO)NC(=O)[C@H](Cc1ccc(O)cc1)NC(=O)[C@H](CC(=O)O)NC(=O)[C@H](CO)NC(=O)[C@@H](NC(=O)[C@H](Cc1ccccc1)NC(=O)[C@@H](NC(=O)CNC(=O)[C@H](CCC(=O)O)NC(=O)C(C)(C)CNC(=O)C(C)(C)c1cc(F)cc(C#N)c1)[C@@H](C)O)[C@@H](C)O)[C@@H](C)CC)[C@@H](C)CC)C(C)C)C(=O)N[C@@H](C)C(=O)NCC(=O)NCC(=O)N1CCC[C@H]1C(=O)N[C@@H](CO)C(=O)N[C@@H](CO)C(=O)NCC(=O)N[C@@H](C)C(=O)N1CCC[C@H]1C(=O)N1CCC[C@H]1C(=O)N1CCC[C@H]1C(=O)N[C@@H](CO)C(N)=O [Compound 192] ({Isobutyryl(2-(3-CN-5-F-Ph))}-[X32]EGTFTSDYSI[Aib]LDKIAQK([AEEA-AEEA-γGlu-C20 diacid])AFVQWLIAGGPSSGAPPPS-NH2),0.1 to 1 nM,101%,1 to 10 nM,104%,> 1000 nM,> 1000 nM
CC[C@H](C)[C@H](NC(=O)[C@H](CC(C)C)NC(=O)[C@H](Cc1c[nH]c2ccccc12)NC(=O)[C@H](CCC(N)=O)NC(=O)[C@@H](NC(=O)[C@H](Cc1ccccc1)NC(=O)[C@H](C)NC(=O)[C@H](CCCCNC(=O)COCCOCCNC(=O)COCCOCCNC(=O)CC[C@H](NC(=O)CCCCCCCCCCCCCCCCCCC(=O)O)C(=O)O)NC(=O)[C@H](CCC(N)=O)NC(=O)[C@H](C)NC(=O)[C@@H](NC(=O)[C@H](CCCCN)NC(=O)[C@H](CC(=O)O)NC(=O)[C@H](CC(C)C)NC(=O)C(C)(C)NC(=O)[C@@H](NC(=O)[C@H](CO)NC(=O)[C@H](Cc1ccc(O)cc1)NC(=O)[C@H](CC(=O)O)NC(=O)[C@H](CO)NC(=O)[C@@H](NC(=O)[C@H](Cc1ccccc1)NC(=O)[C@@H](NC(=O)CNC(=O)[C@H](CCC(=O)O)NC(=O)CCNC(=O)C(C)(C)n1cc(C)c(C(F)(F)F)n1)[C@@H](C)O)[C@@H](C)O)[C@@H](C)CC)[C@@H](C)CC)C(C)C)C(=O)N[C@@H](C)C(=O)NCC(=O)NCC(=O)N1CCC[C@H]1C(=O)N[C@@H](CO)C(=O)N[C@@H](CO)C(=O)NCC(=O)N[C@@H](C)C(=O)N1CCC[C@H]1C(=O)N1CCC[C@H]1C(=O)N1CCC[C@H]1C(=O)N[C@@H](CO)C(N)=O [Compound 158] ({X54-βAla}-EGTFTSDYSI[Aib]LDKIAQK([AEEA-AEEA-γGlu-C20 diacid])AFVQWLIAGGPSSGAPPPS-NH2),0.1 to 1 nM,97%,10 to 100 nM,118%,> 1000 nM,> 1000 nM
CC[C@H](C)[C@H](NC(=O)[C@H](CC(C)C)NC(=O)[C@H](Cc1c[nH]c2ccccc12)NC(=O)[C@H](CCC(N)=O)NC(=O)[C@@H](NC(=O)[C@H](Cc1ccccc1)NC(=O)[C@H](C)NC(=O)[C@H](CCCCNC(=O)COCCOCCNC(=O)COCCOCCNC(=O)CC[C@H](NC(=O)CCCCCCCCCCCCCCCCCCC(=O)O)C(=O)O)NC(=O)[C@H](CCC(N)=O)NC(=O)[C@H](C)NC(=O)[C@@H](NC(=O)[C@H](CCCCN)NC(=O)[C@H](CC(=O)O)NC(=O)[C@H](CC(C)C)NC(=O)C(C)(C)NC(=O)[C@@H](NC(=O)[C@H](CO)NC(=O)[C@H](Cc1ccc(O)cc1)NC(=O)[C@H](CC(=O)O)NC(=O)[C@H](CO)NC(=O)[C@@H](NC(=O)[C@H](Cc1ccccc1)NC(=O)[C@@H](NC(=O)CNC(=O)[C@H](CCC(=O)O)NC(=O)CCNC(=O)C1(c2ccc(F)cc2F)CCCC1)[C@@H](C)O)[C@@H](C)O)[C@@H](C)CC)[C@@H](C)CC)C(C)C)C(=O)N[C@@H](C)C(=O)NCC(=O)NCC(=O)N1CCC[C@H]1C(=O)N[C@@H](CO)C(=O)N[C@@H](CO)C(=O)NCC(=O)N[C@@H](C)C(=O)N1CCC[C@H]1C(=O)N1CCC[C@H]1C(=O)N1CCC[C@H]1C(=O)N[C@@H](CO)C(N)=O [Compound 220] ({X5-βAla}-EGTFTSDYSI[Aib]LDKIAQK([AEEA-AEEA-γGlu-C20 diacid])AFVQWLIAGGPSSGAPPPS-NH2),0.1 to 1 nM,102%,0.1 to 1 nM,108%,< 1000 nM,> 1000 nM
CC[C@H](C)[C@H](NC(=O)[C@H](CC(C)C)NC(=O)[C@H](Cc1c[nH]c2ccccc12)NC(=O)[C@H](CCC(N)=O)NC(=O)[C@@H](NC(=O)[C@H](Cc1ccccc1)NC(=O)[C@H](C)NC(=O)[C@H](CCCCNC(=O)COCCOCCNC(=O)COCCOCCNC(=O)CC[C@H](NC(=O)CCCCCCCCCCCCCCCCCCC(=O)O)C(=O)O)NC(=O)[C@H](CCC(N)=O)NC(=O)[C@H](C)NC(=O)[C@@H](NC(=O)[C@H](CCCCN)NC(=O)[C@H](CC(=O)O)NC(=O)[C@H](CC(C)C)NC(=O)C(C)(C)NC(=O)[C@@H](NC(=O)[C@H](CO)NC(=O)[C@H](Cc1ccc(O)cc1)NC(=O)[C@H](CC(=O)O)NC(=O)[C@H](CO)NC(=O)[C@@H](NC(=O)[C@H](Cc1ccccc1)NC(=O)[C@@H](NC(=O)CNC(=O)[C@H](CCC(=O)O)NC(=O)CCNC(=O)C(C)(C)c1cccc(F)c1F)[C@@H](C)O)[C@@H](C)O)[C@@H](C)CC)[C@@H](C)CC)C(C)C)C(=O)N[C@@H](C)C(=O)NCC(=O)NCC(=O)N1CCC[C@H]1C(=O)N[C@@H](CO)C(=O)N[C@@H](CO)C(=O)NCC(=O)N[C@@H](C)C(=O)N1CCC[C@H]1C(=O)N1CCC[C@H]1C(=O)N1CCC[C@H]1C(=O)N[C@@H](CO)C(N)=O [Compound 147] ({X13-βAla}-EGTFTSDYSI[Aib]LDKIAQK([AEEA-AEEA-γGlu-C20 diacid])AFVQWLIAGGPSSGAPPPS-NH2),0.1 to 1 nM,99%,0.1 to 1 nM,102%,< 1000 nM,> 1000 nM
CC[C@H](C)[C@H](NC(=O)[C@H](CC(C)C)NC(=O)[C@H](Cc1c[nH]c2ccccc12)NC(=O)[C@H](CCC(N)=O)NC(=O)[C@@H](NC(=O)[C@H](Cc1ccccc1)NC(=O)[C@H](C)NC(=O)[C@H](CCCCNC(=O)COCCOCCNC(=O)COCCOCCNC(=O)CC[C@H](NC(=O)CCCCCCCCCCCCCCCCCCC(=O)O)C(=O)O)NC(=O)[C@H](CCC(N)=O)NC(=O)[C@H](C)NC(=O)[C@@H](NC(=O)[C@H](CCCCN)NC(=O)[C@H](CC(=O)O)NC(=O)[C@H](CC(C)C)NC(=O)C(C)(C)NC(=O)[C@@H](NC(=O)[C@H](CO)NC(=O)[C@H](Cc1ccc(O)cc1)NC(=O)[C@H](CC(=O)O)NC(=O)[C@H](CO)NC(=O)[C@@H](NC(=O)[C@H](Cc1ccccc1)NC(=O)[C@@H](NC(=O)CNC(=O)[C@H](CCC(=O)O)NC(=O)CCNC(=O)C1(c2ccccn2)CNC(=O)C1)[C@@H](C)O)[C@@H](C)O)[C@@H](C)CC)[C@@H](C)CC)C(C)C)C(=O)N[C@@H](C)C(=O)NCC(=O)NCC(=O)N1CCC[C@H]1C(=O)N[C@@H](CO)C(=O)N[C@@H](CO)C(=O)NCC(=O)N[C@@H](C)C(=O)N1CCC[C@H]1C(=O)N1CCC[C@H]1C(=O)N1CCC[C@H]1C(=O)N[C@@H](CO)C(N)=O (stereo partly drawn) [Compound 151] ({X79-βAla}-EGTFTSDYSI[Aib]LDKIAQK([AEEA-AEEA-γGlu-C20 diacid])AFVQWLIAGGPSSGAPPPS-NH2),1 to 10 nM,101%,1 to 10 nM,105%,> 1000 nM,> 1000 nM

# — patent US12281149B2, “Modulators of G-protein coupled receptors” (priority 2021, dated 2025)
